In patent US9586928B2 (The Scripps Research Institute, priority 2011, dated 2017):

Experiments:
LXR = target: T1, LXR (Homo sapiens, UniProt Q13133); experiment: Gal4-LXRα / UAS luciferase cotransfection assay; assay type: cell-based
T1 sequence (Q13133 209-447 limits assumed): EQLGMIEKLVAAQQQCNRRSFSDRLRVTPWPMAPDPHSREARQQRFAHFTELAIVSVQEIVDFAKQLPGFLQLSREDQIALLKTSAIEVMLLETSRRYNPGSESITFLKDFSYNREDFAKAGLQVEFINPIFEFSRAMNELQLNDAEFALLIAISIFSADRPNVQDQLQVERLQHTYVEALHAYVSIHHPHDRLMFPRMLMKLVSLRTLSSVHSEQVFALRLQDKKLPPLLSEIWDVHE
Description: (§1) The cells were treated with either DMSO or various compounds as indicated four hours after replating. Following additional 20 hour incubation, luciferase levels were assayed by one-step addition of 20 μL BriteLite (Perkin Elmer) and read using an Envision multilabel plate reader (Perkin Elmer).
(§2) Cotransfection assays were performed as previously described in HEK293 cells (Gal4 cotransfection assay or IL-17 luciferase reporter)[8]. HEK293 and the mouse lymphoma EL4 (ATCC) cells were maintained in DMEM supplemented with 10% FBS plus antibiotics (penicillin and streptomycin; Invitrogen).

RORα = target: T2, RORα (Homo sapiens, UniProt P35398); experiment: IL-17 promoter luciferase reporter with full-length RORα; assay type: cell-based
T2 sequence (P35398 1-523): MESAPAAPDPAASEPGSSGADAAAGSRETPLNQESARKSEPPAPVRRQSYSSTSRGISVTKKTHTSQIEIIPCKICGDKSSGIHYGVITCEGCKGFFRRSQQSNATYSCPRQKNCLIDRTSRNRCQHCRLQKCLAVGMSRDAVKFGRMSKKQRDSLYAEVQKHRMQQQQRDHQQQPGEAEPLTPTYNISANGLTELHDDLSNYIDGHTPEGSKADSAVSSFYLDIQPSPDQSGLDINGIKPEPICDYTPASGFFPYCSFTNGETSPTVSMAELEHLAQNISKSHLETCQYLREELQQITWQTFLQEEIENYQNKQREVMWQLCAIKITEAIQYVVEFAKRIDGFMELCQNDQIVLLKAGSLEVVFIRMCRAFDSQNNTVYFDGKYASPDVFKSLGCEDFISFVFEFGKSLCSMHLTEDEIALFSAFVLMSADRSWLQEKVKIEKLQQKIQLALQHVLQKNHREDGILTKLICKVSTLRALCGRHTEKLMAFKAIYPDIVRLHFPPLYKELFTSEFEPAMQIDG
From the text: Since RORα and RORγ are critical regulators of IL-17 gene expression, we examined whether SR1555 would affect RORα and RORγ-dependent regulation of an IL-17 promoter driven luciferase reporter construct. HEK293 cells were transiently transfected with an IL-17 reporter, either full-length RORα or RORγ, and treated with an increasing concentration of SR1555[8]. In a dose dependent manner, SR1555 suppressed IL-17 promoter driven activity by RORγ but not RORα, further confirming that SR1555 is indeed a RORγ-specific inverse agonist (FIG. 1d). Finally, using EL4 cells, a murine thymoma which endogenously express RORα, RORγ t, and IL-17A, we examined whether SR1555 affected endogenous IL-17 gene expression. EL4 cells were treated with DMSO or SR1555 for 24 hours and analyzed for Il17a gene expression by quantitative real-time PCR.
Cotransfection assays were performed as previously described in HEK293 cells (Gal4 cotransfection assay or IL-17 luciferase reporter)[8]. […]
HEK293 cells were maintained in Dulbecco's modified Eagle's medium (DMEM) supplemented with 10% fetal bovine serum at 37° C. under 5% CO2. […] The luciferase levels were assayed following additional 20 hour incubation by one-step addition of BriteLite Plus (Perkin Elmer) and read using an Envision (Perkin Elmer). […]

VP16 = experiment: Gal4 DBD-VP16 / UAS luciferase control assay; assay type: cell-based
Description: as §1

FXR = target: T3, FXR (Homo sapiens, UniProt Q96RI1); experiment: Gal4-FXR / UAS luciferase cotransfection assay; assay type: cell-based; settings: Gal4 chimeric cotransfection
T3 sequence (Q96RI1 262-486 limits assumed): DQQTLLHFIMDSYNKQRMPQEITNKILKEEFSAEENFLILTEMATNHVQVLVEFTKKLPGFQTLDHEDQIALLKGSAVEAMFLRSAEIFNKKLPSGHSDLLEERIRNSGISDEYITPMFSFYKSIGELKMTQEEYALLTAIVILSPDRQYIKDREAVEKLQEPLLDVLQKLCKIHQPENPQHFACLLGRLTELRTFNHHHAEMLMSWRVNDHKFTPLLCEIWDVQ
Description: as §2

T regulatory cells = experiment: T regulatory cell differentiation of splenocytes (RTPCR, Foxp3 FACS); assay type: cell-based, murine
Description: Therefore, the environmental cues associated with the concentration of TGF[…] dictates the balance between TH17 and T regulatory cell differentiation. In light of the reciprocal relationship between these two cell types, we assessed whether SR1555 affected the development of T regulatory cells in vitro. Splenocytes were cultured under T regulatory cell polarizing conditions (TGFβ and IL-2) for 3 days. […] To determine whether the gene expression data would correlate with protein expression, we again cultured splenocytes for 5 days under T regulatory cell polarizing conditions in the presence of DMSO or SR1555 and examined the expression of Foxp3 by intracellular cytokine FACS analysis.
Splenocytes were differentiated under the following conditions: iTreg-10 μg/mL anti-IFNγ, 10 μg/mL anti-IL-4, and 2 ng/mL TGFβ (R&D Systems); 20 ug/mL anti-IFNγ, 20 ug/mL anti-IL-4, 1 ng/mL TGFβ, and 10 ng/mL IL-6 (R&D Systems) for TH17 conditions. All cultures were stimulated with 1 μg/mL anti-CD3 (eBiosciences) and 1 μg/mL anti-CD28 (eBiosciences). Four to five days after activation, all cells were restimulated with 5 ng/mL phorbol-12-myristate-13-acetate (PMA) (Sigma) and 500 ng/mL ionomycin (Sigma) for 2 hours with the addition of GolgiStop (BD Bioscience) for an additional 2 hours before intracellular staining. Cells were cultured in RPMI 1640 medium (Invitrogen) with 10% FBS and antibiotics.
RNA extraction and QRT-PCR analysis was performed as previously described.

OC(c1ccc(-c2ccc(CN3CCN(Cc4ccncc4)CC3)cc2)c(F)c1)(C(F)(F)F)C(F)(F)F [SR2211, 1,1,1,3,3,3-hexafluoro-2-(2-fluoro-4′-((4-(pyridin-4-ylmethyl)piperazin-1-yl)methyl)-[1,1′-biphenyl]-4-yl)propan-2-ol]
right shift of EC50 on LXRα (LXR): more than 100 fold | effect on LXR activity (LXR; Gal4 chimeric cotransfection): minimal activation of LXRα | activation of LXRα as compared to T1317 (LXR; highest concentration tested): less than 5% | IL-17 promoter driven activity by RORα (RORα): did not alter the transcription driven by the Il17 promoter | luciferase activity of Gal4 DBD-VP16 (off-target effects/toxicity) (VP16): no change in the luciferase activity of Gal4 DBD-VP16 | effect on transcriptional activity of FXR (FXR): no effect on the transcriptional activity of FXR | T regulatory cell proliferation (T regulatory cells): does not alter T regulatory cell proliferation
